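These data come from cells grown in 96-well plates and exposed to compound for 48 hours at five concentrations. The concentration for full growth arrest is given as TGI.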

Holding throughout (assay): inhibition of tumour cell growth, NCI panel, 48 h
Test [1] relates to XF 498 CNS.
The test system of test [2] is HOP-18 NSCLC.
Test [3] concerns SNB-78 CNS.
Test [4] concerns LXFL 529 NSCLC.
The subject of test [5] is DMS 114 small cell lung.
The test system of test [6] is DLD-1 colon.
The subject of test [7] is KM20L2 colon.
Test [8] concerns DMS 273 small cell lung.
Test [9] deals with M19-MEL melanoma.

Turning to `COc1ccc(N2C(=O)C3CC(c4ccc(Br)cc4)c4c([nH]c5ccccc45)C3C2=O)cc1` (stereo not drawn), the TGI in [1] was found to be 32 µM; in [2], 24.8 µM; in test [3] it was 36.3 µM; in test [4], 14.2 µM; in [5], 20.8 µM; in [6], 23.4 µM. Further, the values for the TGI in [7], in test [8] and in test [9] were 27.3 µM, 18.2 µM and 25.6 µM, respectively.

`O=C1c2ccccc2N(O)C1(c1ccccc1)C1CCCC=C1N1CCOCC1` (stereo not drawn): the TGI in test [3], in test [4], in test [5], in [6], in test [7] and in test [8] was more than 100 µM each time. In addition, the TGI in [9] is more than 100 µM.

For the molecule `O=S1(=O)c2ccccc2N(O)C2=NCCN21`, the TGI in test [3], in test [4], in test [5], in [6], in test [7] and in test [8] was more than 100 µM in each case. This molecule also registered a TGI in test [9] of more than 100 µM.

Values taken from PubChem BioAssay (NCI).
